# Experimental data as given in patent publication US11497713B2, “Combination taxoid nanoemulsion with immunotherapy in cancer” (TargaGenix, Inc., priority 2017, dated 2022).
# Columns and labels:
# [1] = test system: human CFPAC-1 pancreatic tumor xenograft; experiment: Human CFPAC-1 pancreatic tumor xenograft efficacy (FIG. 2); format: in vivo, mice; conditions: for efficacy as compared to vehicles: CFPAC-1 xenograft
# [2] = test system: highly drug resistant tumor xenografts; experiment: Highly drug resistant tumor xenografts in mice; conditions: mouse, in vivo
# [3] = test system: patient-derived PPT2 prostate cancer stem cell xenograft; experiment: Patient-derived prostate cancer stem cell (PPT2) xenograft model; format: in vivo, mice; conditions: patient-derived prostate CSC xenograft
# [4] = test system: human PANC-1 pancreatic tumor xenograft; experiment: Human PANC-1 pancreatic tumor xenograft, schedule comparison (FIG. 3); format: in vivo, RPCI SCID mice
# From the text: In FIG. 3, this experiment compared a q7d×3 with a q3d×3 schedule for paclitaxel and DHA-SBT-1214 using a human PANC-1 pancreatic tumor xenograft in RPCI SCID mice. […] Paclitaxel was only weakly effective, showing tumor growth delays of 18 days with q7d×3 schedule and 13 days with q3d×3 schedule and no CRs.
# Panc02 cells = experiment: Cell viability (MTT assay) in Panc02 cells; format: cell-based, murine; conditions: Mus musculus, 96 hours of drug exposure
# Procedure: The murine pancreatic cancer cell line Panc02, which is syngeneic to C57Bl/6 mice was a kind gift from Professor Michael A. Hollingsworth, UNMC, Omaha, Nebr. Panc02 cells were grown in 75 cm^2 cell culture flasks and maintained in DMEM medium supplemented with 10% fetal bovine serum (FBS), L-glutamine and penicillin (100 U/ml)/streptomycin (100 μg/ml) (both from Gibco Life Technologies, Carlsbad, Calif., USA). Cells were incubated at 37° C. in a humidified atmosphere containing 5% CO2.
# To see cytotoxic effect of different drugs and nanoemulsion formulation, 5000 cells were seeded in each well of the 96-well plate for overnight at 37° C. in a humidified atmosphere containing 5% CO2. Various drugs (Paclitaxel, Abraxane, Gemcitabine and solution and nanoemulsion of DHA-SBT-1214) were diluted at concentrations ranging from 0 nM, 0.01 nM, 0.1 nM, 1 nM, 10 nM, 100 nM, 1000 nM to 10000 nM and Panc02 cells treated with these concentrations for 96 hours. After incubation, cells were treated with 3-(4,5-dimethylthiazol-2-yl)-2,5-diphenyltetrazolium bromide ([…]). MU crystals were dissolved with DMSO and plates were read at 570 nm absorbance using a BioTek Synergy HTX Multi-Mode Microplate Reader.
# Cells were seeded at 0.5×10^6 cells/well in 6-well plates for overnight at 37 C in a humidified atmosphere containing 5% CO2. […] The percentage maximal response is shown as a function of anti-cancer agents when administered to Panc02 cells. The cell viability was measured by the MTT assay after 96 hours of incubation at 37° C. Data represent mean±standard deviation (n=3). Significant differences are indicated as follows: *p<0.05, and **p<0.01. The expression level of PD-L1 was determined using flow cytometry as follows. […] The cells were washed once with 3% BSA/PBS and analyzed by flow cytometer on a FACSCalibur flow cytometer and CellQuest™ Pro version 6.0 software (both from Becton-Dickinson and Co.). […]
# [5] = test system: PD-L1 surface expression in Panc02 cells; experiment: PD-L1 surface protein expression by flow cytometry; format: cell-based, murine; conditions: IC50 concentration, 48 hours
# Procedure: Cells were seeded at 0.5×10^6 cells/well in 6-well plates for overnight at 37 C in a humidified atmosphere containing 5% CO2. […] The percentage maximal response is shown as a function of anti-cancer agents when administered to Panc02 cells. The cell viability was measured by the MTT assay after 96 hours of incubation at 37° C. Data represent mean±standard deviation (n=3). Significant differences are indicated as follows: *p<0.05, and **p<0.01. The expression level of PD-L1 was determined using flow cytometry as follows. Briefly, cells harvested from in vitro cultures were washed twice with 3% BSA/PBS and then incubated with rat anti-PD-L1 or isotype control antibodies ([…], BioXcell, West Lebanon, N.H., USA) for 30 minutes at 4 C, then washed three times and incubated with anti-rat AlexaFluor 488 conjugated Antibody. The cells were washed once with 3% BSA/PBS and analyzed by flow cytometer on a FACSCalibur flow cytometer and CellQuest™ Pro version 6.0 software (both from Becton-Dickinson and Co.).
# Panc02 cells were treated with gemcitabine, Abraxane™, paclitaxel and DHA-SBT-1214 both in solution and nanoemulsion for 48 hours to determine whether they can induce PD-L1 protein expression. PD-L1 expression levels on tumor cells were determined by flow cytometry and is expressed as the A mean fluorescence intensity (ΔMFI; MFI using anti-PD-L1 subtracted from the isotype control). […] PD-L1 expression was analyzed using flow cytometry and is presented as ΔMFI (MFI using anti-PD-L1 subtracted from the isotype control). Data represent the mean±standard deviation of at least 3 independent experiments; *p<0.05, **p<0.01, ***p<0.001. As reported previously, PD-L1 level enhanced in pancreatic tumor tissues compared to in vitro growing cells as shown in FIG. 8.
# PDAC = conditions: cited from earlier work
molecule,measurement,setting,value
CC/C=C\C/C=C\C/C=C\C/C=C\C/C=C\C/C=C/CCC(=O)O[C@@H](C(=O)O[C@H]1C[C@@]2(O)[C@@H](OC(=O)c3ccccc3)C3[C@](C)(C(=O)[C@H](OC(C)=O)C(=C1C)C2(C)C)[C@@H](O)C[C@H]1OC[C@@]31OC(C)=O)[C@@H](NC(=O)c1ccccc1)c1ccccc1 (stereo partly shown) [DHA-paclitaxel],efficacy as compared to vehicles,[1],only minor tumor growth delay
same,efficacy,[2],do not show meaningful activity
CC(=O)O[C@@]12CO[C@@H]1C[C@H](O)[C@@]1(C)C(=O)[C@H](OC(=O)C3CC3)C3=C(C)[C@@H](OC(=O)[C@H](O)[C@H](C=C(C)C)NC(=O)OC(C)(C)C)C[C@@](O)([C@@H](OC(=O)c4ccccc4)[C@H]21)C3(C)C [SBT-1214],weight loss,"[1]; 120 mg/kg total dose, until day 20",< 4%
"CC(=O)O[C@H]1C(=O)[C@@]2(C)[C@H]([C@H](OC(=O)c3ccccc3)[C@]3(O)C[C@H](OC(=O)[C@H](O)[C@@H](NC(=O)c4ccccc4)c4ccccc4)C(C)=C1C3(C)C)[C@]1(OC(C)=O)CO[C@@H]1C[C@@H]2O [paclitaxel, reference compound]","efficacy (tumor growth, survival)",[3],completely ineffective
same,complete responses (CRs),[4]; PANC-1 xenograft,no CRs
same,tumor growth delay,[4]; q3d×3 schedule,13 days
same,tumor growth delay,[4]; q7d×3 schedule,18 days
same,efficacy as compared to vehicles,[1],only minor tumor growth delay
same,efficacy,[2],do not show meaningful activity
same,IC50,Panc02 cells,443 nM
same,PD-L1 surface expression (ΔMFI),[5],upregulated
"O=c1[nH]cc(F)c(=O)[nH]1 [5-FU, 5-flurouracil]",median overall survival,"PDAC; randomized Phase III trial, gemcitabine versus 5-FU",4.41 months
FOLFIRINOX,median survival,PDAC; Phase III clinical trial of FOLFIRINOX,11.1 months
